Test system: PP5 mRNA
Assay: Northern blot analysis of PP5 mRNA expression in A549 cells
Assay type: cell-based, human
Set-up: key to Activity class in initial screen (PP5 mRNA reduction): oligonucleotides giving a reduction of PP5 mRNA of approximately 50% or greater were considered active
Conditions: for Activity class in initial screen (PP5 mRNA reduction) / Percent Inhibition of PP5 mRNA: 300 nM oligonucleotide; for Percent Inhibition of PP5 mRNA: four hours, lipofectin, approximate, compared to control
Text: The oligonucleotides shown in Table 1 were designed using the Genbank sequences HSSERTHRP (Genbank accession number X92121), HSRNAPPP5 (Genbank accession number X89416) and PPP5C (Genbank accession number U25174), synthesized and tested for inhibition of PP5 mRNA expression in A549 cells using a Northern blot assay. All oligonucleotides shown in Table 1 are chimeric oligonucleotides with central 2'-deoxy "gaps," which have phosphorothioate backbones, flanked on both sides by 2'-methoxyethoxy (2'-MOE) "wings" (shown in bold), which have phosphodiester backbones. All cytosines in the 2'-MOE wings are 5-methylcytosines.
In the initial screen, A549 cells were treated with oligonucleotides at a concentration of 300 nM oligonucleotide for four hours in the presence of […] lipofectin. Results were normalized and expressed as a percent of control. The effect of each oligonucleotide on levels of PP5 mRNA, expressed as approximate percent inhibition compared to control, is shown in Table 1. In this initial screen, oligonucleotides giving a reduction of PP5 mRNA of approximately 50% or greater were considered active. […] These sequences (SEQ ID NO: 1, 2, 3, 4, 6, 7 and 12, respectively, SEQ ID Nos shown in bold in Table 1) are therefore preferred.
These oligonucleotides were tested for their ability to reduce PP5 mRNA levels in A549 cells, using oligonucleotide doses of 25 to 500 nM.
The human lung tumor cell line A549 was obtained from the American Type Culture Collection (Rockville Md.) and were grown in DMEM (Gibco BRL, Gaithersburg Md.), supplemented with 10% fetal calf. Cells were seeded on 60 mm plates. When they reached 70% confluency, they were washed with DMEM and 1 ml of DMEM containing 15 μg/ml DOTMA/DOPE (Lipofectin®, GIBCO-BRL) and oligonucleotide at desired concentration was added. Duplicate dishes were used for each treatment condition. After 4 hours of treatment at 37°, cells were washed and cultured in fresh DMEM containing 10% fetal bovine serum for an additional 17 hours. Cells were then harvested and total RNA was extracted with TRIzol Reagent (GIBCO-BRL) according to manufacturer's protocol. Total RNA (20 μg) was fractionated on a 1% agarose gel containing formaldehyde, and transferred to a DURLON-UV (Stratagene) nylon membrane. Following UV crosslinking, the filters were hybridized with the appropriate protein phosphatase probe. The ^32 P-labeled human PP cDNA probes are generated with DECAPrime® DNA Labeling Kit (Ambion) according to the manufacturer's protocol. Hybridization was performed in a hybridization solution containing 50% formamide at 42° for 16 hours. This was followed by two low stringency washes (2×SSC) at room temperature and two high stringency washes (0.1×SSC/0.5% SDS) at 55° C. Hybridization signals were visualized by autoradiography, and filters were then stripped and reprobed with a ^32 P-labeled glyceraldehyde-3-phosphate dehydrogenase (GAPDH) probe to confirm equal loading. The densities of hybridization signals were measured with the NIH Image program (ImagePC).
The cells were harvested, and total RNA was extracted with TRIzol® Reagent according to the methods of the manufacturer. Total RNA (20 μg) was fractionated on 1% agarose gels containing formaldehyde and transferred to DURLON-UV nylon membranes (Stratagene). Following UV cross-linking, the filters were hybridized with a [α^32 P]probe for human PP5. The human PP5 cDNA probe was generated from the full length coding region of PP5 and [α^32 P]-dATP was labeled with DECAprime® DNA Labeling Kit according to the manufacturer's protocol. Hybridization was performed in the presence of 50% formamide, 0.1 M Pipes, 0.8 M NaCl, 5×Denhardt's solution, 100 μg/ml denatured herring sperm DNA, 1×10^6 cpm/ml [α-^32 P]-labeled probe and 10% dextran sulfate at 42° C. for 16 hours. Following hybridization, the membrane was subjected to two low stringency washes (2×SSC) at room temperature and then two high stringency washes (0.1×SSC/0.5% SDS) at 55° C. […]

ISIS 14499: chimeric 2'-MOE/deoxy gap antisense oligonucleotide to human PP5, coding; CCAGGTTGTTCTCTTCCAAG, SEQ ID NO: 7 (sugars by position and backbone not given here; chimeric 2'-MOE wings with deoxy gap)
Activity class in initial screen (PP5 mRNA reduction): active | Percent Inhibition of PP5 mRNA: 62%

ISIS 14503: chimeric 2'-MOE/deoxy gap antisense oligonucleotide to human PP5, 3' UTR; GCCCCAGCTGCTCCACCTCC, SEQ ID NO: 11 (sugars by position and backbone not given here; chimeric 2'-MOE wings with deoxy gap)
Percent Inhibition of PP5 mRNA: 27%

ISIS 14495: chimeric 2'-MOE/deoxy gap antisense oligonucleotide to human PP5, coding; GTAGGCCAGGCTGCGGTTGC, SEQ ID NO: 3 (sugars by position and backbone not given here; chimeric 2'-MOE wings with deoxy gap)
Activity class in initial screen (PP5 mRNA reduction): active | Percent Inhibition of PP5 mRNA: 66%

ISIS 14497: chimeric 2'-MOE/deoxy gap antisense oligonucleotide to human PP5, coding; TCCCCACATACTGTAATCTT, SEQ ID NO: 5 (sugars by position and backbone not given here; chimeric 2'-MOE wings with deoxy gap)
Percent Inhibition of PP5 mRNA: 11%

ISIS 14498: chimeric 2'-MOE/deoxy gap antisense oligonucleotide to human PP5, coding; GTACTTGGCCTTCACCTCAC, SEQ ID NO: 6 (sugars by position and backbone not given here; chimeric 2'-MOE wings with deoxy gap)
Activity class in initial screen (PP5 mRNA reduction): active

ISIS 14505: chimeric 2'-MOE/deoxy gap antisense oligonucleotide to human PP5, 3' UTR; CCCAGCCTAGCCCCACCATG, SEQ ID NO: 13 (sugars by position and backbone not given here; chimeric 2'-MOE wings with deoxy gap)
Percent Inhibition of PP5 mRNA: 23%

ISIS 14504: chimeric 2'-MOE/deoxy gap antisense oligonucleotide to human PP5, 3' UTR; GGGCCCTATTGCTTGAGTGG, SEQ ID NO: 12 (sugars by position and backbone not given here; chimeric 2'-MOE wings with deoxy gap)
Activity class in initial screen (PP5 mRNA reduction): active

ISIS 15523: chimeric PP5 antisense oligonucleotide, wider deoxy gap, uniformly phosphorothioate; GGGCCCTATTGCTTGAGTGG, SEQ ID NO: 12 (all phosphorothioate, sugars by position and methylation of C not given here; chimeric with deoxy gap)
IC50 (doses of 25 to 500 nM, read-out: IC50 for reduction of PP5 mRNA levels): ~100 nM

ISIS 14496: chimeric 2'-MOE/deoxy gap antisense oligonucleotide to human PP5, coding; CCGCTGTACTCATCCTCAAT, SEQ ID NO: 4 (sugars by position and backbone not given here; chimeric 2'-MOE wings with deoxy gap)
Activity class in initial screen (PP5 mRNA reduction): active | Percent Inhibition of PP5 mRNA: 54%

ISIS 14493: chimeric 2'-MOE/deoxy gap antisense oligonucleotide to human PP5, AUG; TCGCCCTCCGCCATCGCCAT, SEQ ID NO: 1 (sugars by position and backbone not given here; chimeric 2'-MOE wings with deoxy gap)
Activity class in initial screen (PP5 mRNA reduction): active

ISIS 14501: chimeric 2'-MOE/deoxy gap antisense oligonucleotide to human PP5, stop codon; CGCCCCGCCCGTCACCTCAC, SEQ ID NO: 9 (sugars by position and backbone not given here; chimeric 2'-MOE wings with deoxy gap)
Percent Inhibition of PP5 mRNA: 42%

ISIS 14500: chimeric 2'-MOE/deoxy gap antisense oligonucleotide to human PP5, coding; AGAGCCCTGGAGGTGGATGT, SEQ ID NO: 8 (sugars by position and backbone not given here; chimeric 2'-MOE wings with deoxy gap)
Percent Inhibition of PP5 mRNA: 41%

ISIS 14494: chimeric 2'-MOE/deoxy gap antisense oligonucleotide to human PP5, coding; TTCAGAGCTCCATCAGCCGG, SEQ ID NO: 2 (sugars by position and backbone not given here; chimeric 2'-MOE wings with deoxy gap)
Activity class in initial screen (PP5 mRNA reduction): active | Percent Inhibition of PP5 mRNA: 52%

ISIS 14502: chimeric 2'-MOE/deoxy gap antisense oligonucleotide to human PP5, 3' UTR; CCTACCCCCTCTGCAAACCT, SEQ ID NO: 10 (sugars by position and backbone not given here; chimeric 2'-MOE wings with deoxy gap)
Percent Inhibition of PP5 mRNA: 40%

Reference: patent US6235891A, “Glucocorticoid receptor agonist and decreased PP5” (South Alabama Medical Science Foundation, priority 1999, dated 2001)
